The values that follow are results of earlier work, collected in patent publication US5567683A, “Substituted lactose and lactosamine derivatives as cell adhesion inhibitors” (Glycomed Incorporated, priority 1994, dated 1996).

The structures appear in SMILES notation.

This data set has as its system mammalian hepatocytes. The note with it: effect of valency and spacing of lactose moieties; read-out: IC50 for inhibition of labeled ASOR binding to mammalian hepatocytes.

As for `OC[C@H]1O[C@@H](O[C@H]2[C@H](O)[C@@H](O)C(O)O[C@@H]2CO)[C@H](O)[C@@H](O)[C@H]1O` (stereo partly shown) [monovalent lactose, lactose], the concentration for half-maximal inhibition (IC50) was 500 µM.

Broadly, the IC50 is the concentration at which inhibition is half-maximal.
